Assays:
[1] = test system: H69 (human small cell lung cancer) tumors; assay: Hypothetical volume test of injected solution; assay type: in vivo, NMRI-Foxn1^nu mice; details: with electroporation
Method: H69, a human small cell lung cancer cell line stably transfected with EGFP regulated by the cytomegalo-virus (CMV) promoter, is used for the in vivo experiments. The cells are tested by rapid MAP27 panel (Taconic, Hudson N.Y.) before use without signs of infection. Cells are maintained in vitro as described in Example 1. 1.5×10^6 cells/100 μl PBS are injected subcutaneously in both flanks of NMRI-Foxn1^nu mice (Harlan, Indianapolis, Ind.) that are 9-11 weeks old. Tumor pieces are transplanted from donor mice to the right flank of nude mice. HYPNORM™-DORMICUM™ (fentanyl/fluanisone/midazolam; VetaPharma, Leeds, U K and Roche, Basel, Switzerland) is used for anesthesia complemented with RIMADYL® (Carprofen) (Pfizer ApS, Ballerup, Denmark) […] as lidocaine (Region Hovedstadens Apotek, Herlev, Denmark) in the incision. […] Tumor volume is calculated as ab^2n/6, where “a” is the largest diameter and “b” is the largest diameter perpendicular to “a”. […] Background fluorescence is measured on the opposite flank and then the background fluorescence level is subtracted from fluorescence intensity of tumors. Finally, all fluorescence intensity below 100 normalised counts (NC) is filtered away using ART, Saint-Laurent, Quebec OPTIX® Optiview version 2.02 software (ART, Saint-Laurent, Quebec).
The differences in tumor volume and fluorescence intensity between tumors injected with the different solution volumes in the 4 treatment groups are evaluated as repeated measurements, validated and analysed with an exponential decrease model with Bonferroni correction for multiple comparisons using SAS® software version 9.1 (SAS, Cary, N.C.). ‘Group’, ‘days’ and ‘mouse’ are considered as factors and baseline levels of tumor volume or fluorescence intensity are used as covariant.

[2] = test system: HT29 (human colon cancer) tumors; assay: Fraction of necrosis after calcium electroporation, HT29 tumors; assay type: in vivo, NMRI-Foxn1^nu mice
Method: LPB, a murine sarcoma cell line, B16, a murine malignant melanoma cell line, MDA-MB231, human a breast cancer cell line, HT29, a human colon cancer cell line, and SW780, a human bladder cancer cell line were used for the in vivo experiment. The cells were tested by rapid MAP27 panel (Taconic, Hudson N.Y.) before use without signs of infection. 2×10^5 cells (B16), 8×10^5 cells (LPB), 2.5×10^6 cells (MDA-MB231), and 5×10^6 cells (HT29 and SW780) in 100 μl PBS were injected subcutaneously in the flank of NMRI-Foxn1^nu mice (Harlan, Indianapolis, Ind.) that were 9-11 weeks old. Mice were randomised at a tumor volume above 85 mm^3 and tumors were treated with injection of isotonic calcium-chloride solution (168 mM CaCI2) and electroporation (8 pulses of 1.0 kv/cm for 100 μs and a frequency of 1 Hz) using a 6 mm plate electrode and a square wave electroporator (CLINIPORATOR®, IGEA, Modena, Italy). Tumor volume was calculated as ab^2n/6, where a is the largest diameter and b is the largest diameter perpendicular to a. The injected volume was half of the tumor volume. […] The fraction of necrosis within the tumor was estimated from HE-sections by stereological point counting using a light microscope, evaluated by a pathologist, blinded with respect to treatment status.
The difference in fraction of necrosis at different time after treatment was assessed using student's t-test.

[3] = test system: DC-3F, K-562 and Lewis Lung Carcinoma cells; assay: Hypothetical sonoporation in vitro, MTT assay; assay type: cell-based, Chinese hamster, human, murine
Method: Three cell lines are used for in vitro experiments, DC-3F, a transformed Chinese hamster lung fibroblast cell line; K-562, a human leukemia cell line; and Lewis Lung Carcinoma, a murine lung carcinoma cell line. All cell lines are tested for mycoplasma. Cells are maintained in RPMI 1640 culture medium with 10% fetal calf serum, penicillin and streptomycin at 37° C. and 5% CO2. After harvesting, cells are washed and diluted in HEPES buffer containing 10 mM HEPES, 250 mM sucrose and 1 mM MgCl2 in sterile. The cell suspension with 0, 0.5, 1 and 3 mM CaCl2 is added to a sample tube which is placed in the ultrasound exposure chamber and exposed to low-frequency ultrasound at room temperature. A function generator is programmed to provide a wave of selected voltage, duty cycle, burst length, and total exposure time.
After 20 min at 37° C. and 5% CO2 cells are diluted in RPMI 1640 culture medium with 10% fetal calf serum and penicillin-streptomycin and seeded in 96-well plates at a concentration of 3.1×10^4 cells/100 μl.
Difference between cells treated with and without ultrasound in identical buffer is assessed using two-way analysis of variance CANOVA) with post least-squares-means test with Bonferroni correction for multiple comparisons.

[Ca+2].[Cl-].[Cl-] [calcium chloride]
tumors eliminated ([1]; volume ratio 0.2, 004, 0.6 or 0.8): eliminates most of the tumors | ulceration of treated tumors [1]: occurs in most | fluorescence intensity of tumors ([1]; all 4 injection volumes): decrease drastically | fraction of necrosis in tumors, course ([2]; 168 mM CaCl2, half tumor volume, electroporation, first days after treatment): progressive necrosis | tumor re-growth ([2]; 6 days after the treatment): re-growth | cell death ([3]; with ultrasound, 0 to 3 mM calcium): dose dependent cell death | effect on cell viability ([3]; without ultrasound, high calcium concentrations): no effect on cell viability

From US9943599B2, “Therapeutic applications of calcium electroporation to effectively induce tumor necrosis” (Herlev Hospital, priority 2011, dated 2018)
